Assay results as given in US11479533B2, “Inhibitors of Rho associated coiled-coil containing protein kinase” (KADMON CORPORATION, LLC, priority 2017, dated 2022).

Columns and labels:
[1] = system: ACTA2-promoter-driven-luciferase in NIH3T3 cells; assay: NIH3T3 Acta2-promoter driven-luciferase assay; assay type: cell-based; conditions: Mus musculus, plus TGFβ1, 24 hr, read-out: NIH3T3, Acta2-luc, IC50
Outline: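 Stable NIH3T3 line carrying luciferase reporter under human ACTA2 promoter (−1000-1 bp); confluent cells given 9-point compound dilutions with TGFβ1 for 24 hr. Lysed cells read for luciferase; IC50 from nonlinear regression fit.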

[2] = target: recombinant ROCK2 (amino acids 1-552) (Homo sapiens (Human), UniProt O75116); assay: Z'-lyte kinase assay, ROCK2; assay type: biochemical
Outline: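 Inhibition of recombinant human ROCK2 (residues 1-552, sourced from ThermoFisher Scientific) was assessed in vitro with the Z'-lyte kinase kit. Kinase activity with compound was normalized to DMSO control to give percent inhibition. IC50s came from 9-point 2-fold serial dilutions fitted by nonlinear regression in GraphPad Prism.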

[3] = system: human oligodendrocyte/neuron progenitor cells; assay: Aβ 1-42 induced cell death assay on human oligodendrocyte/neuron progenitors; assay type: cell-based; conditions: 3 μM, 10.5 μM Aβ1-42, 24 hour
Description: Aβ 1-42 induced cell death assay on human oligodendrocyte/neuron progenitors in 96-well plate. Cells were seeded on poly-L-ornithine and laminin coated plates at a density of 8,000 cells per well and maintained in expansion media until Day 3, then media was replaced with fresh spontaneous differentiation media containing testing compounds and IncuCyte Annexin V Red Reagent (1:200 dilution) (Essen BioScience Cat. No. 4641). After the pre-incubation period of 30 minutes at 37° C., 10.5 μM Aβ 1-42 (Bachem Product No. H-8146) was added directly in the pretreatment solution. Neurite length and total Annexin V positive area were analyzed by IncuCyte S3 Live Cell Analysis System every 2 hours.
In addition to promoting neuroregeneration, ROCK inhibitors have been reported to exert neuroprotective effects and prolong neuronal survival. Here we test the neuroprotective effect of ROCK inhibitors against Aβ1-42. Human oligodendrocyte/neuron progenitor cells were pre-incubated with ROCK inhibitors for 30 minutes before exposing to 10.5 μM Aβ1-42. IncuCyte Annexin V Red Reagent was added to culture media to label cell apoptosis. Pictures were taken by IncuCyte S3 and total Annexin V positive area was analyzed by IncuCyte S3 base software. Neurite length was quantified by IncuCyte NeuroTrack Software Module, see FIGS. 3b and 3c.

[4] = system: human oligodendrocyte/neuron progenitor cells; assay: Neurite outgrowth and differentiation of human oligodendrocyte/neuron progenitors; assay type: cell-based
Description: Thawing and proliferation of human oligodendrocyte/neuron progenitor cells (OPCs). Cryopreserved human oligodendrocyte/neuron progenitors (Millipore Cat. No. CS204496) were recovered and cultured on maltrigel (BD Cat. No. 356324) coated T-25 flask in expansion media containing OPC/neuron basal medium, N21 medium supplement, recombinant human bFGF, PDGF-AA and NT-3. When cells reached 80% confluent, 3 ml of Accutase was applied (Millipore SCR005) to passage cells at 1:4 ratio. Sub-cultured cells were maintained in expansion media for proliferation.
Spontaneous differentiation of human oligodendrocyte/neuron progenitors in 24-well and 96-well plates. Coat plate with 10 μg/ml poly-L-ornithine (Sigma Cat. No. P4957) overnight at room temperature. Remove the poly-L-ornithine solution and rinse the plate with 1×PBS, add 10 μg/ml laminin (Millipore Cat. No. CC095) and incubate at 37° C. for at least 2 hours. Seed cells on the coated plates in expansion media and allowed to attach overnight. The next day expansion media was removed and replaced with freshly prepared spontaneous differentiation media only containing OPC/neuron basal media and N21 media supplement. For 14 day culture, differentiation media was replaced every 3-4 days. Cells were imaged and neurite length was analyzed by IncuCyte S3 Live Cell Analysis System every 4 hours. After 14 days of differentiation, cells were fixed by 4% paraformaldehyde and stained with DAPI and Neuron-specific ß-III tubulin antibody (R&D systems, NL1195R).

[5] = target: recombinant ROCK1 (amino acids 1-535) (Homo sapiens (Human), UniProt Q13464); assay: Z'-lyte kinase assay, ROCK1; assay type: biochemical; conditions: @ 0.5 μM; read-out: ROCK1 % inh (0.5 μM)
Description: Determination of compounds ROCK inhibitory activity in vitro (Z'lyte assay): recombinant ROCK1 (amino acids 1-535) and ROCK2 (amino acids 1-552) proteins were purchased from ThermoFisher Scientific. Compounds activities were measured by Z'-lyte kinase kit (ThermoFisher Scientific) and IC50s were calculated.
Compounds activities were measured by Z'-lyte kinase kit (ThermoFisher Scientific). […] IC50s were calculated using the GraphPad Prism software with kinase activities data that were collected from 9 points serial dilution of compounds treatment. The ROCK inhibition in A7R5 cells and NIH3T3 (Acta2-Luc) cells was performed as described above.
The percent inhibition rate was calculated by normalizing the kinase activity value obtained with compound treatment against DMSO control value and then applied to the equation, […]. IC50's were calculated using the nonlinear regression curve fit function of the GraphPad Prism software with kinase activities data measured with 9 points 2-fold serial dilution of compounds treatment.

[6] = system: human oligodendrocyte/neuron progenitor cells; assay: Chondroitin Sulfate Proteoglycan (CSPG) assay on human oligodendrocyte/neuron progenitors; assay type: cell-based; conditions: 1 μM and 3 μM, 72 hour
Description: Chondroitin Sulfate Proteoglycan (CSPG) assay on human oligodendrocyte/neuron progenitors in 96-well plate. […] Cells were seeded on the coated plates at a density of 6,000 cells per well in expansion media. The following day the expansion media was replaced with fresh spontaneous differentiation media containing testing compounds. Cells were imaged and neurite length was analyzed by IncuCyte S3 Live Cell Analysis System every 4 hours.

[7] = system: ppMlc (T18/S19) levels in A7R5 cells; assay: A7R5 in-cell ELISA assay (ppMlc); assay type: cell-based, rat; conditions: Rattus norvegicus, A7R5, A7R5 cells, Table 2; read-out: pMLC IC50 (nM) A7R5
Outline: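 Rat aortic smooth muscle A7R5 cells in DMEM with 10% FBS, seeded 24 h, then treated 90 min with 9-point 2-fold compound dilutions. ppMlc (T18/S19) measured by colorimetric in-cell ELISA; cellular IC50 from nonlinear regression curve fit.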

[8] = cited from earlier work
sAPPβ = conditions: direct injection into hippocampus; cited from earlier work

Chain of recombinant ROCK2 (amino acids 1-552) (O75116 1-552): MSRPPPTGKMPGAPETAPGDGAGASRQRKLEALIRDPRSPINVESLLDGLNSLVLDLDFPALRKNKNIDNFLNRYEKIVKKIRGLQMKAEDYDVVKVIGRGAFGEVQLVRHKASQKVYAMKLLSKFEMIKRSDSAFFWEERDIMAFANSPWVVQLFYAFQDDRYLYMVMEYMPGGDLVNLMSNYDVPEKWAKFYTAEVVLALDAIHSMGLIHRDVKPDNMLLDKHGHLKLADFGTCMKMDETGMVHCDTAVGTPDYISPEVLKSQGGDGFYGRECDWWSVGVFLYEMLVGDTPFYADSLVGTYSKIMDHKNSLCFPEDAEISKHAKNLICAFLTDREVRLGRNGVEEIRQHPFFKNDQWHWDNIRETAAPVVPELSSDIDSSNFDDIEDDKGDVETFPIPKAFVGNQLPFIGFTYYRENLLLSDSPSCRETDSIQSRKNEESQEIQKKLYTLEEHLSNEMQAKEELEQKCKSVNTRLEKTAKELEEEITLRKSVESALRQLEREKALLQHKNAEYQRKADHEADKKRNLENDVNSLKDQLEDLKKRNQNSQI
Chain of recombinant ROCK1 (amino acids 1-535) (Q13464 1-535): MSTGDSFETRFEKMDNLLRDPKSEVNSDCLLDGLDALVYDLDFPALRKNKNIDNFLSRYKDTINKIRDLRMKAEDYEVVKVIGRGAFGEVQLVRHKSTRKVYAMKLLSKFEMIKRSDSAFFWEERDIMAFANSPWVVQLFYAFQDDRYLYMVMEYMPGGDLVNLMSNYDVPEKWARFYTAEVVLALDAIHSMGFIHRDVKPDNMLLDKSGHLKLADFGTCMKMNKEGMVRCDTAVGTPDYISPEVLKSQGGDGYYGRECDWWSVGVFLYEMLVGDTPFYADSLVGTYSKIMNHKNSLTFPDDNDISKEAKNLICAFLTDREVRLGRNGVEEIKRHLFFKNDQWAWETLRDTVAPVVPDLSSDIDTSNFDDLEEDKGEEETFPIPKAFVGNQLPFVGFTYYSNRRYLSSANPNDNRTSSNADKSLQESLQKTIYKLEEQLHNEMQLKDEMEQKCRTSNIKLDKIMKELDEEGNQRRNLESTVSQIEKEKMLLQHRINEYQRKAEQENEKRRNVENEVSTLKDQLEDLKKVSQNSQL

CNC(C(=O)Nc1ccc(-c2cn[nH]c2)cc1)c1ccc(Cl)cc1 (centres unmarked) [Example 17, N-(4-(1H-pyrazol-4-yl)phenyl)-2-(4-chlorophenyl)-2-(methylamino)acetamide]
IC50 [1]: 108 nM | IC50 [2]: 6.3 nM | inhibition at 0.5 µM ([2]; @ 0.5 μM, read-out: ROCK2 % inh (0.5 μM)): 98% | Aβ1-42 induced cell death (Annexin V area) [3]: significantly protect | neurite outgrowth in the presence of Aβ1-42 [3]: promoted neurite outgrowth | neuronal differentiation and maturation ([4]; 14 days culture, Beta III tubulin): facility neuronal differentiation and maturation | neurite length ([4]; various concentrations, 3 days culture): significantly increase neurite length | inhibition at 0.5 µM [5]: 99% | CSPG mediated neurite outgrowth arrest [6]: significantly counteract | IC50 [7]: 60 nM

CN(C)CCOc1cc(-c2cn[nH]c2)ccc1NC(=O)C1COc2ccccc2O1 (centres unmarked) [SR3677]
brain penetration ([8]; in vivo): lack of brain penetration | half-life ([8]; oral PK): < 1 h | oral bioavailability (F) ([8]; oral): 5% | sAPPβ (sAPPβ): lowering sAPPβ
